Measurements published in US20210388012A1, “METHODS AND COMPOSITIONS FOR PRODRUG FORMS OF SPECTINOMYCIN AND SPECTINAMIDE ANALOGS” (priority 2018, published 2021).

Tests used:
[1] = test system: M. tuberculosis Erdman (TMCC107); test: Murine model of acute TB infection; type: in vivo; settings: BALB/c mice, subcutaneous injection 400 mg/kg daily, 12 consecutive days
[2] = PlasmaLyte A stability study; type: physicochemical; settings: room temperature; for % remaining: 10 mg/mL in PlasmaLyte A and milli-Q water (50:50)
Description: (§1) LC-MS Method 1. Quantitative determination of the amount of a disclosed compound present in blood, plasma, or urinary can be determined by LC-MS/MS methods. Briefly, a suitable method involves use of calibrants (0.976, 1.95, 3.91, 7.81, 15.63, 31.25, 62.5, 125, 250, 500, 1000 ng/mL) were in sample matrix (e.g., rat plasma, blood or urine). A separate solution of disclosed compound (independent of calibrants) is used to prepare quality controls. Appropriate volumes of working solutions are added to the sample matrix to yield the final concentrations of 1, 50, 1000 ng/mL. Linearity for calibrants in duplicate is assessed by subjecting the spiked concentrations and the respective peak areas to least-square linear regression analysis with and without intercepts, and a weighted least-square regression (1/x or 1/x^2). The lowest limit of quantitation (LLOQ) in the standard curve measured with acceptable accuracy and precision for a disclosed compound from rat plasma has been previously established as 0.976 ng/mL for a representative compound, 1810. All samples are precipitated by the addition of 4-volumes (100 μL) of IS, 1369 (10 ng/mL) in methanol to a volume (25 μL) of plasma/urine test sample. The samples are vortexed (Fisher scientific, USA) for 30 sec and centrifuged at 10,000×g for 10 min at 4° C. and the supernatants are collected for LC-MS/MS analysis. Chromatographic separation is carried out using a Shimadzu Nexera XR (LC-20ADXR) liquid chromatograph (Shimadzu Corporation, USA) consisting of two pumps, online degasser, system controller and an auto sampler. Mobile phase consisting of a) water with 1.6% nonafluoropentanoic acid and 0.7% formic acid b) 90% acetonitrile with 0.8% nonafluoropentanoic acid and 0.35% formic acid can be used at a flow rate of 0.5 rnLirnin in gradient mode. A Waters® Symmetry ® 3.5μ C8, 50×2.1 mm column (Waters, Milford, Mass.) is used for the separation. Samples (5 μL) are injected on column and the eluate is provided directly to an API 5500 triple quadruple mass spectrometer (Applied Biosystems, Foster City, Calif.) equipped with a turbospray ion source operated in the positive ion mode. The optimized multiple reactions monitoring (MRM) conditions for 3408 (549.2A207.1), 1810 (469.2^207.1) and IS (418.3^207.1) are monitored with a declustering potential of 45 V and collision energy of 25 eV. Data are acquired and processed with Analyst software version 1.6.2 (Applied Biosystems, Foster City, Calif.).
Stability of compound 3408 was determined in a mixture of PlasmaLyte A and milli-Q water (50:50) at room temperature. Briefly, a 10 mg/mL solution of compound 3408 was prepared in triplicate and samples were collected (0, 1, 2, 3, 4, 5, 6 h). These samples were processed by addition of 4-volumes of methanol and quantitated by LC-MS/MS method disclosed herein in LC-MS Method 1. The percentage drug remaining at each hour was calculated with respect to the concetration at the initial time point.

[3] = Pharmacokinetic study in rat; type: in vivo, Sprague-Dawley rats; settings: intravenous
Description: as §1
Pharmacokinetic assessment of the disclosed compounds can be determined in a rat model as described herein. Briefly, catheterized male Sprague-Dawley rats from Harlan Bioscience (Indianapolis, Ind.), weighing 200-250 g, are kept at a 12 h light/dark cycle with access to food and water ad libitum. The procedures are approved by the Institutional Animal Care and Use Committee of the University of Tennessee Health Science Center. Formulations of a disclosed compound are prepared in water (50%) and PlasniaLyte A (50%). Test compound can be administered either via intravenous route (10 mg/kg) via femoral vein catheter with the study conducted using a group of 6 rats. Blood (250 μL) was collected via the jugular vein catheter at 0.08, 0.25, 0.5, 0.75, 1, 1.5, 2, 4, 6, 8, 10, 24 and 48 h after drug administration. Plasma was immediately separated by centrifugation (6,000×g for 10 min at 4° C.) and stored at −70° C. until analysis. The plasma concentration was determined as described herein above in LC-MS Method 1, and plasma concentration-time courses were fitted to a non-compartmental model using Phoenix WinNonlin 7.0 (Certara L. P., Princeton, NJ). Area under the concentration-time profile curve (AUC) was calculated by the log trapezoidal rule by log-linear regression and extrapolated to infinity by addition of the value Ct/λZ, where Ct is the concentration at the last time point, and λZ the terminal slope (determined by linear regression) of the log concentration-time curve. […]

[4] = Single ascending maximum tolerated dose study in rat; type: in vivo; settings: female Sprague-Dawley rats, 5 second IV bolus
Description: Several compounds were assessed in single ascending maximum tolerated studies. The compounds assessed were 1810; 3408, a prodrug form of compound 1810; 1599, a chloro homologue of compound 1810; and gentamicin, an antimicrobial associated with ototoxicity. The study was carried out in female Sprague-Dawley rats (n=3 per group). All the drug solutions were prepared in water and PLASMA-LYTE A (50:50; […] was obtained from Baxter Healthcare Corporation, Deerfield, Ill.). Each group of rats were fasted overnight with access to water aJ libitum and a fixed volume (2 mL) of drug-containing solution was administered via the jugular vein catheter. Food was withheld for 3 h post dosing. Different phases of the study were classified on five different speeds of i.v, administration; Phase 1: 5 sec, Phase 2: 30 sec, Phase 3: 5 min, Phase 4: 15 min, Phase 5: 30 min. In the first and second phases, a set of predefined dose levels: 10, 25, 50, 75, 100, 150, 300, 350, 400, 450 and 500 mg/kg. Escalation to the next higher dose was conditional upon absence of signs of acute toxicity following the immediate lower dose over a 24 h period. All animals were monitored by visual inspection focused on focus on changes in skin, fur, eyes, and also respiratory, circulatory, autonomic and central nervous systems, along with somatomotor activity and behavior pattern, including tremors, convulsions, salivation, diarrhea, lethargy, sleep and coma. A dose level was deemed an MTD if […] of acute toxicity were observed and that dose was chosen for the second phase of the study where the process was repeated to determine a toxic dose. For third, fourth and fifth phases, dosing solution was infused by a Instech tethering system (Instech Laboratories Inc., Plymouth Meeting, Pa.) where the animal is freely moving within its cage, the catheter connection is held in place by a vascular access harness and a swivel system, and the drug administration is performed via a Harvard Apparatus programmable syringe pump. After dosing, the tether was removed immediately after completion of the infusion and the catheter was flushed with (100 μL) PlasmaLyte A. Surviving animals from the previous dose with no signs of toxicity were re-used in either phases of these studies upon allowing a one day drug washout period.

CN[C@@H]1[C@H](O)[C@H](NC)[C@H]2O[C@]3(O)[C@H](O[C@@H]2[C@H]1O)O[C@H](C)C[C@H]3NC(=O)Cc1ccc(OP(=O)(O)O)cn1 [Compound 3408, 6-(2-oxo-2-(((2R,4R,4a5,5aR,6S,7S,8R,9S,9aR,10aS)-4a,7,9-trihydroxy-2-methyl-6,8-bis(methylamino)decahydro-2H-benzo[b]pyrano[2,3-e][1,4]dioxin-4-yl)amino)ethyl)pyridin-3-yl dihydrogen phosphate]
Efficacy in mouse model of acute tuberculosis infection (lung CFU, FIG. 1) [1]: similarly active | % remaining ([2]; hour 0): 100% | % remaining ([2]; hour 1): 103% | % remaining ([2]; hour 2): 101% | % remaining ([2]; hour 3): 105% | % remaining ([2]; hour 4): 104% | % remaining ([2]; hour 5): 104% | % remaining ([2]; hour 6): 104% | time stable in solution ([2]; 10 mg/mL in Plasmalyte A and milli-Q water mixture (50:50)): at least 6 hours | In vivo conversion of prodrug to parent (in words) [3]: rapidly converted in vivo to the parent drug form | MTD [4]: >500 mg/kg | MTD at 24 h ([4]; female, Sprague-Dawley, rat, in vivo, iv, read-out: MTD): > 500 mg/kg
